A short description of series [1]: Slurry of Form B of pomalidomide in EtOH, 0.1 N HCl, or water (solid form conversion). Type of series: physicochemical. The settings on record: slurring in EtOH, 0.1 N HCl, or water for 3 days. The text has this: In one embodiment, without being limited by particular theory, Form B is a metastable form of pomalidomide.
Series [2] in a line: Solubility of pomalidomide in various solvents at ambient temperature (visual inspection, solvent aliquot addition). Type of series: physicochemical. As for the experimental part: Solubility was estimated by treating a weighed sample of pomalidomide with measured aliquots of the test solvent at ambient temperature, with shaking and/or sonication between aliquots. Dissolution was determined by visual inspection. Solubility numbers were calculated by […]. The actual solubilities may be greater than the numbers calculated because of the use of solvent aliquots that were too large or because of slow dissolution rates. […] The solubility number is expressed as “greater than” if dissolution occurred on addition of the first solvent aliquot.

Each structure is given as a SMILES string. ≈ marks a conversion by molar mass, not a printed value. Read-outs that look alike come from different tables or passages of the source.

With `Nc1cccc2c1C(=O)N(C1CCC(=O)NC1=O)C2=O` (stereo not drawn) [Form B of pomalidomide, 4-amino-2-(2,6-dioxopiperidine-3-yl)isoindoline-1,3-dione], the “Solid form stability on slurrying” value in series [1] is “converts to Form A of pomalidomide”.
Usually solubility stands for the concentration that dissolves in the medium under given conditions. On to `Nc1cccc2c1C(=O)N(C1CCC(=O)NC1=O)C2=O` (stereo not drawn) [Pomalidomide, 4-amino-2-(2,6-dioxopiperidine-3-yl)isoindoline-1,3-dione], for which the “solubility” value in series [2] (Acetone) is 900 µg/mL (≈ 3.29 mM); in series [2] (DMF:acetone (1:2)) it was 6000 µg/mL (≈ 22 mM); in series [2] (Hexafluoroisopropanol), 2300 µg/mL (≈ 8.42 mM); in series [2] (THF:water (95:5)) it was 3500 µg/mL (≈ 12.8 mM); in series [2] (organic solvent or mixture, thermodynamic from solid, 2,2,2-trifluoroethanol, read-out: Solubility), less than 1000 µg/mL; in series [2] (organic solvent or mixture, thermodynamic from solid, 2-methyltetrahydrofuran, read-out: Solubility), less than 1000 µg/mL. In addition, the solubility is less than 1000 µg/mL in series [2] (organic solvent or mixture, thermodynamic from solid, Acetonitrile, read-out: Solubility); more than 5000 µg/mL in series [2] (organic solvent or mixture, thermodynamic from solid, DMF, read-out: Solubility); 4200 µg/mL (≈ 15.4 mM) in series [2] (organic solvent or mixture, thermodynamic from solid, DMF:methanol (1:1), read-out: Solubility); 2400 µg/mL (≈ 8.78 mM) in series [2] (organic solvent or mixture, thermodynamic from solid, DMF:methanol (1:2), read-out: Solubility); less than 1000 µg/mL in series [2] (organic solvent or mixture, thermodynamic from solid, Dichloromethane, read-out: Solubility); less than 1000 µg/mL in series [2] (organic solvent or mixture, thermodynamic from solid, Methanol, read-out: Solubility). In addition, the solubility was less than 1000 µg/mL in series [2] (organic solvent or mixture, thermodynamic from solid, acetone:water (95:5), read-out: Solubility) and 1100 µg/mL (≈ 4.03 mM) in series [2] (tetrahydrofuran (THF)).
